# Legend:
# Assay type in all cases: cell-based
# [1] = test system: BGC-823 (human gastric cancer cells); assay: MTT method, inhibition of cell growth in vitro; conditions: 48 h; for IC50: BGC-823, MTT
# Description: (§1) A. Experimental Materials and the Preparation Thereof: • (1) Cell lines: PANC-1 (human pancreatic cancer cells), SKOV3 (human ovarian cancer cells), MCF-7 (human breast cancer cells), SMMC-7721 (human liver cancer cells), A549 (human lung cancer cells), BGC-823 (human gastric cancer cells), COLO205 (human colonic cancer cells), storaged and passaged maintainably in Research and Evaluation Center for Pharmacology, Shanghai Institute of Pharmaceutical Industry; • (2) DMEM complete medium supplied with 10% newborn calf serum (GIBCO BRL), 1% of penicillin (100 U/mL)+streptomycin (100 μg/mL); • (3) 0.25% trypsin solution, purchased from Invitrogen Corp. and storaged at −20; • (4) Phosphate buffer (PBS): NaCl 8 g, KCl 0.2 g, Na2HPO4 1.15 g and KH2PO4 0.2 g, dissolved in 1 L double-distilled water and autoclaved at 121 for 20 min, then storaged at 4; • (5) MTT (AMRESCO) solution: 5 mg/ml in PBS; • (6) Formazan crystal dissolving solution: SDS 10 g, isobutanol 5 ml and concentrated hydrochloric acid 0.1 ml, dissolved in 100 ml of deionized double distilled water.
# (§2) The inhibition effects of the compound of formula (I) on the above-mentioned cell lines were detected by using MTT method. The specific procedures were as follows:
# (§3) (1) Cell culture: (a) Storaged cells were taken out from the liquid nitrogen, thawed quickly in a 37 water bath, then aseptically transferred into 6 ml of cellular medium in a 10 ml centrifugal tube, centrifuged at 1000 rpm for 5 min. The supernatant was discarded, then the precipitated cells were re-suspended in 5-6 ml cellular media by pipetting and transferred into a flask in a 37 incubator for cell culture; (b) Next day, the flask was taken out from the incubator and the used medium was discarded, then the cells were incubated in 5-6 ml fresh medium in the 37 incubator; (c) On the third day, the flask was taken out from the incubator and the used medium was discarded, then 2-3 ml of PBS (pH7.4) was added into the flask with rocking for cleaning it and the used PBS was discarded. Such a cellular cleaning step was repeated once again. 3-5 drops of 0.25% trypsin solution were added into the flask with sloshing, thus well-distributed in it. The flask was capped and placed in a 37 incubator for about 3 min, and the separation of cells from the flask wall was observed under the microscope. 2 ml of cellular medium was added and cells were separated completely from the flask wall by pipetting, then the cell suspension was transferred into 2 separate clean flasks, each containing 5-6 ml medium. The cell suspension was well-distributed by pipetting, then the flask was placed in a 37 incubator. (d) Step(c) was repeated every other day. In the whole cultivation process, adherent cells were not allowed to grow too dense and suspension cells were always maintained at a logarithmic growth stage.
# (§4) (2) Preparation of the sample and the control: A proper amount of sample of the compound of formula (I) was dissolved in DMSO to obtain a solution in a concentration of 10 mg/ml. This solution was diluted in a gradient dilution with PBS to obtain a set of sample solutions in the concentration of 10 mg/ml, 5000 μg/ml, 2500 μg/ml, 1250 μg/ml, 625 μg/ml and 312.5 μg/ml, respectively.
# (§5) (3) Each diluted sample solution was added into duplicated wells of a 96 well flat-bottom microplate (10 μl/well). The correspondingly diluted DMSO solutions, as controls, were added into the wells of the microplate.
# (§6) (4) Cells in a logarithmic growth stage were trypsinized and washed, then re-suspended in the medium containing 10% calf serum. The number of living cells was counted in Trypan blue dye exclusion method and cell suspensions were adjusted into a density of 2×10^5 cell/ml.
# (§7) (5) The cell-contained 96 well flat-bottom microplate was placed in a 37 incubator and cells were incubated under 5% CO2 for 48 h.
# (§8) (6) 20 it of 5 mg/ml MTT solution was added into each well and cells were incubated continuously in the incubator for 3-4 h. […]
# [2] = test system: COLO205 (human colonic cancer cells); assay: MTT method, inhibition of cell growth in vitro; conditions: 48 h; for IC50: COLO 205, COLO205, MTT
# Description: as §1, §2, §3, §4, §5, §6, §7, §8
# [3] = test system: PANC-1 (human pancreatic cancer cells); assay: MTT method, inhibition of cell growth in vitro; conditions: 48 h; for IC50: PANC-1, MTT
# Description: as §1, §2, §3, §4, §5, §6, §7, §8
# [4] = test system: SMMC-7721 (human liver cancer cells); assay: MTT method, inhibition of cell growth in vitro; conditions: 48 h; for IC50: SMMC-7721, MTT
# Description: as §1, §2, §3, §4, §5, §6, §7, §8
# [5] = test system: A549 (human lung cancer cells); assay: MTT method, inhibition of cell growth in vitro; conditions: 48 h
# Description: as §1, §2, §3, §4, §5, §6, §7, §8
# [6] = test system: MCF-7 (human breast cancer cells); assay: MTT method, inhibition of cell growth in vitro; conditions: 48 h
# Description: as §1, §2, §3, §4, §5, §6, §7, §8
# [7] = test system: SKOV3 (human ovarian cancer cells); assay: MTT method, inhibition of cell growth in vitro; conditions: 48 h
# Description: as §1, §2, §3, §4, §5, §6, §7, §8
# 7 human tumor cell lines = assay: MTT method, overall conclusion on 7 human tumor cell lines; conditions: various concentrations
# Description: as §1
# The inhibition effects of the compound of formula (I) on the above-mentioned cell lines were detected by using MTT method. The specific procedures were as follows: […]
compound,measurement,setting,value
"CC(=O)O[C@H]1C(=O)[C@@]2(C)[C@H]([C@H](OC(=O)c3ccccc3)[C@]3(O)C[C@H](OC(=O)[C@H](O)[C@@H](NC(=O)c4ccccc4)c4ccccc4)C(C)=C1C3(C)C)[C@]1(OC(C)=O)CO[C@@H]1C[C@@H]2O [Taxol, reference compound]",IC50,[1],0.24 µg/mL
same,IC50,[2],0.75 µg/mL
same,IC50,[3],0.44 µg/mL
same,IC50,[4],0.12 µg/mL
"CCCCCC=CCC=CCCCCCCCC(=O)OC(COC(=O)CCCCCCCC=CCCCCCCCC)COC(=O)CCCCCCCC=CCCCCCCCC (centres unmarked) [compound of formula (I), 1,3-diolein-2-linolein]",inhibition at 31.25 µg/mL,"[5]; A549, 31.25 μg/ml, read-out: Inhibition rate on the cell growth",5.16%
same,inhibition at 62.5 µg/mL,"[5]; A549, 62.5 μg/ml, read-out: Inhibition rate on the cell growth",25.6%
same,inhibition at 125 µg/mL,"[5]; A549, 125 μg/ml, read-out: Inhibition rate on the cell growth",46.4%
same,inhibition at 250 µg/mL,"[5]; A549, 250 μg/ml, read-out: Inhibition rate on the cell growth",50.5%
same,inhibition at 500 µg/mL,"[5]; A549, 500 μg/ml, read-out: Inhibition rate on the cell growth",67%
same,inhibition at 1000 µg/mL,"[5]; A549, 1000 μg/ml, read-out: Inhibition rate on the cell growth",98.2%
same,IC50,"[5]; A549, MTT",156 µg/mL
same,inhibition at 31.25 µg/mL,"[1]; BGC-823, 31.25 μg/ml, read-out: Inhibition rate on the cell growth",8.31%
same,inhibition at 62.5 µg/mL,"[1]; BGC-823, 62.5 μg/ml, read-out: Inhibition rate on the cell growth",63.8%
same,inhibition at 125 µg/mL,"[1]; BGC-823, 125 μg/ml, read-out: Inhibition rate on the cell growth",79%
same,inhibition at 250 µg/mL,"[1]; BGC-823, 250 μg/ml, read-out: Inhibition rate on the cell growth",76.2%
same,inhibition at 500 µg/mL,"[1]; BGC-823, 500 μg/ml, read-out: Inhibition rate on the cell growth",85%
same,inhibition at 1000 µg/mL,"[1]; BGC-823, 1000 μg/ml, read-out: Inhibition rate on the cell growth",98.5%
same,IC50,[1],85 µg/mL
same,inhibition at 31.25 µg/mL,"[2]; COLO 205, COLO205, 31.25 μg/ml, read-out: Inhibition rate on the cell growth",8.95%
same,inhibition at 62.5 µg/mL,"[2]; COLO 205, COLO205, 62.5 μg/ml, read-out: Inhibition rate on the cell growth",10.7%
same,inhibition at 125 µg/mL,"[2]; COLO 205, COLO205, 125 μg/ml, read-out: Inhibition rate on the cell growth",12.6%
same,inhibition at 250 µg/mL,"[2]; COLO 205, COLO205, 250 μg/ml, read-out: Inhibition rate on the cell growth",43.9%
same,inhibition at 500 µg/mL,"[2]; COLO 205, COLO205, 500 μg/ml, read-out: Inhibition rate on the cell growth",82.3%
same,inhibition at 1000 µg/mL,"[2]; COLO 205, COLO205, 1000 μg/ml, read-out: Inhibition rate on the cell growth",93.8%
same,IC50,[2],209 µg/mL
same,inhibition at 31.25 µg/mL,"[6]; MCF7, MCF-7, 31.25 μg/ml, read-out: Inhibition rate on the cell growth",13.3%
same,inhibition at 62.5 µg/mL,"[6]; MCF7, MCF-7, 62.5 μg/ml, read-out: Inhibition rate on the cell growth",31.5%
same,inhibition at 125 µg/mL,"[6]; MCF7, MCF-7, 125 μg/ml, read-out: Inhibition rate on the cell growth",62.3%
same,inhibition at 250 µg/mL,"[6]; MCF7, MCF-7, 250 μg/ml, read-out: Inhibition rate on the cell growth",67.1%
same,inhibition at 500 µg/mL,"[6]; MCF7, MCF-7, 500 μg/ml, read-out: Inhibition rate on the cell growth",68.8%
same,inhibition at 1000 µg/mL,"[6]; MCF7, MCF-7, 1000 μg/ml, read-out: Inhibition rate on the cell growth",99.7%
same,IC50,"[6]; MCF7, MCF-7, MTT",106 µg/mL
same,inhibition at 62.5 µg/mL,"[3]; PANC-1, 62.5 μg/ml, read-out: Inhibition rate on the cell growth",0.8%
same,inhibition at 125 µg/mL,"[3]; PANC-1, 125 μg/ml, read-out: Inhibition rate on the cell growth",2.01%
same,inhibition at 250 µg/mL,"[3]; PANC-1, 250 μg/ml, read-out: Inhibition rate on the cell growth",25.9%
same,inhibition at 500 µg/mL,"[3]; PANC-1, 500 μg/ml, read-out: Inhibition rate on the cell growth",48.1%
same,inhibition at 1000 µg/mL,"[3]; PANC-1, 1000 μg/ml, read-out: Inhibition rate on the cell growth",75%
same,IC50,[3],509 µg/mL
same,inhibition at 31.25 µg/mL,"[7]; SK-OV-3, SKOV3, 31.25 μg/ml, read-out: Inhibition rate on the cell growth",9.97%
same,inhibition at 62.5 µg/mL,"[7]; SK-OV-3, SKOV3, 62.5 μg/ml, read-out: Inhibition rate on the cell growth",34%
same,inhibition at 125 µg/mL,"[7]; SK-OV-3, SKOV3, 125 μg/ml, read-out: Inhibition rate on the cell growth",76.8%
same,inhibition at 250 µg/mL,"[7]; SK-OV-3, SKOV3, 250 μg/ml, read-out: Inhibition rate on the cell growth",79.4%
same,inhibition at 500 µg/mL,"[7]; SK-OV-3, SKOV3, 500 μg/ml, read-out: Inhibition rate on the cell growth",93.8%
same,inhibition at 1000 µg/mL,"[7]; SK-OV-3, SKOV3, 1000 μg/ml, read-out: Inhibition rate on the cell growth",99.3%
same,IC50,"[7]; SK-OV-3, SKOV3, MTT",92.6 µg/mL
same,inhibition at 31.25 µg/mL,"[4]; SMMC-7721, 31.25 μg/ml, read-out: Inhibition rate on the cell growth",8.81%
same,inhibition at 62.5 µg/mL,"[4]; SMMC-7721, 62.5 μg/ml, read-out: Inhibition rate on the cell growth",13.4%
same,inhibition at 125 µg/mL,"[4]; SMMC-7721, 125 μg/ml, read-out: Inhibition rate on the cell growth",38.5%
same,inhibition at 250 µg/mL,"[4]; SMMC-7721, 250 μg/ml, read-out: Inhibition rate on the cell growth",62.3%
same,inhibition at 500 µg/mL,"[4]; SMMC-7721, 500 μg/ml, read-out: Inhibition rate on the cell growth",80%
same,inhibition at 1000 µg/mL,"[4]; SMMC-7721, 1000 μg/ml, read-out: Inhibition rate on the cell growth",98.8%
same,IC50,[4],150 µg/mL
same,Inhibition on 7 human tumor cell lines (in words),7 human tumor cell lines,obvious inhibition on 7 human tumor cell lines

# Source: US20160015669A1, “COMPOUND, 1, 3-DIOLEIN-2-LINOLEIN, AND PHARMACEUTICAL PREPARATION AND USE THEREOF” (ZHEJIANG KANGLAITE GROUP CO., LTD., priority 2014, published 2016)
